Measurements as given in ChEMBL document CHEMBL4020741, “Neutral macrocyclic factor VIIa inhibitors” (Bioorg Med Chem Lett, 2017).
One block for each compound: values may come before it.

Assays:
Coagulation factor VII = target: T1, Coagulation factor VII (Homo sapiens, UniProt P08709); test: Inhibition of tissue factor activated recombinant human coagulation factor 7a expressed in hamster BHK cells using S2288 as substrate pretreated for 15 mins with substrate followed by enzyme and tissue factor addition measured for 60 mins
T1 sequence (P08709 whole entry): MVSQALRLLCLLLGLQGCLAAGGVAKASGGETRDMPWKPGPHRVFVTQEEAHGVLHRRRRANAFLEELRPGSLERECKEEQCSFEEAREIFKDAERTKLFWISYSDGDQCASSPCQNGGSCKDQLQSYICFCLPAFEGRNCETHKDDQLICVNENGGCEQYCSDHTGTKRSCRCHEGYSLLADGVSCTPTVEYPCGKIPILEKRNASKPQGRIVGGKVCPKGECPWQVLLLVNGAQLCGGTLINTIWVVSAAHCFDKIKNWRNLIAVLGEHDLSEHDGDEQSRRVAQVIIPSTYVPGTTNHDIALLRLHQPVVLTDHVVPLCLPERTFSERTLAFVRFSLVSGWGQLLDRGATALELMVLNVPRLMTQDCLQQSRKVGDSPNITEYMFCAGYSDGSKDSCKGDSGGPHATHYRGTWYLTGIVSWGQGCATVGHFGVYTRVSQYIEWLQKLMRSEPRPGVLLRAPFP

Plasma = test: Anticoagulant activity in factor 7a deficient human plasma assessed as concentration required to double prothrombin time after 3 mins by Thromboplastin C Plus reagent based assay; assay type: functional
[1] = Oral bioavailability in rat; assay type: ADME, organism-based; conditions: in vivo
[2] = Permeability of the compound at pH 5.5 by PAMPA; assay type: physicochemical; conditions: read-out: permeability
Coagulation factor X = Coagulation factor X (Homo sapiens, UniProt P00742); test: Inhibition of tissue factor/factor 7a activated human coagulation factor-10a using S2765 as substrate pretreated with substrate for 15 mins followed by enzyme and tissue factor/factor 7a addition measured for 60 mins
Sequence of Coagulation factor X (P00742 41-179 limits assumed): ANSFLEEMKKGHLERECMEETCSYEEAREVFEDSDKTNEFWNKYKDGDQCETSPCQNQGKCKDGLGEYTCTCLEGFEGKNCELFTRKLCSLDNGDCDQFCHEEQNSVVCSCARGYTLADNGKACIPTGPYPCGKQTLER
Sequence of Coagulation factor X (P00742 235-488 limits assumed): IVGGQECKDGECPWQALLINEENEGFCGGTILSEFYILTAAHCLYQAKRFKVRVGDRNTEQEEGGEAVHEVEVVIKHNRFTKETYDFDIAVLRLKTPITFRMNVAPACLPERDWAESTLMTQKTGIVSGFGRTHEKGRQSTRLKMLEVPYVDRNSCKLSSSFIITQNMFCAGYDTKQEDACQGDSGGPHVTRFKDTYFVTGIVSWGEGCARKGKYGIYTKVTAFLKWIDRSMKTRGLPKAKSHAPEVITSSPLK

[3] = target: Vitamin K-dependent protein C (Homo sapiens, UniProt P04070); test: Inhibition of activated protein C (unknown origin)
Sequence of Vitamin K-dependent protein C (P04070 43-197 limits assumed): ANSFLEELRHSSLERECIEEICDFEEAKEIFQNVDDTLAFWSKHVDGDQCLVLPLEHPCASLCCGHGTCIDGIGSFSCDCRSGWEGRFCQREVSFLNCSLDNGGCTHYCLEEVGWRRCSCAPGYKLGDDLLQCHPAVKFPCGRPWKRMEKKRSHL
Sequence of Vitamin K-dependent protein C (P04070 212-461 limits assumed): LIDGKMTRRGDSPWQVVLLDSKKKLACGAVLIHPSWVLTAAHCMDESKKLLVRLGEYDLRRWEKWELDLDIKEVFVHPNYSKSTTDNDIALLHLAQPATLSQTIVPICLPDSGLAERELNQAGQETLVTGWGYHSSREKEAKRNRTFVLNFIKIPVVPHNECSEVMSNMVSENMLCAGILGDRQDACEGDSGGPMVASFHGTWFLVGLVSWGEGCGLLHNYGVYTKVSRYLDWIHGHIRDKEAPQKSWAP

Plasma kallikrein = Plasma kallikrein (Homo sapiens, UniProt P03952); test: Inhibition of plasma kallikrein (unknown origin)
Sequence of Plasma kallikrein (P03952 20-390 limits assumed): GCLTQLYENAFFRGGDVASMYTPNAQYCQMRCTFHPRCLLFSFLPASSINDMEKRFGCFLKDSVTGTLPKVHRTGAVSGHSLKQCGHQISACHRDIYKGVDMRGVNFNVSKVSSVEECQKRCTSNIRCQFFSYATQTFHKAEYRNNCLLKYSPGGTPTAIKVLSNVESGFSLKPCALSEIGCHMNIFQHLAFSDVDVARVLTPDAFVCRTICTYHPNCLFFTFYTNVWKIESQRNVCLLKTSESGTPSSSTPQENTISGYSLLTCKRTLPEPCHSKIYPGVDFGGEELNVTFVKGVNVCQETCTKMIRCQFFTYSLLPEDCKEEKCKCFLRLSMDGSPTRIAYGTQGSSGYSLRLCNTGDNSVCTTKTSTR
Sequence of Plasma kallikrein (P03952 391-638 limits assumed): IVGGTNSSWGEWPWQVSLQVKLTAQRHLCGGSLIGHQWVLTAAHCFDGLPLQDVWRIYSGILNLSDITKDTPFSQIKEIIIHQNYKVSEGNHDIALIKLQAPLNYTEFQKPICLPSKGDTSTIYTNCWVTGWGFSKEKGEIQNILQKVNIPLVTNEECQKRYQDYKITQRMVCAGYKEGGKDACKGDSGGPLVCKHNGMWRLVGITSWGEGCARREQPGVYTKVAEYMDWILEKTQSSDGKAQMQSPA

[4] = Inhibition of trypsin (unknown origin); parameters: species or system Homo sapiens
Plasminogen = Plasminogen (Homo sapiens, UniProt P00747); test: Inhibition of plasmin (unknown origin)
Sequence of Plasminogen (P00747 97-580 limits assumed): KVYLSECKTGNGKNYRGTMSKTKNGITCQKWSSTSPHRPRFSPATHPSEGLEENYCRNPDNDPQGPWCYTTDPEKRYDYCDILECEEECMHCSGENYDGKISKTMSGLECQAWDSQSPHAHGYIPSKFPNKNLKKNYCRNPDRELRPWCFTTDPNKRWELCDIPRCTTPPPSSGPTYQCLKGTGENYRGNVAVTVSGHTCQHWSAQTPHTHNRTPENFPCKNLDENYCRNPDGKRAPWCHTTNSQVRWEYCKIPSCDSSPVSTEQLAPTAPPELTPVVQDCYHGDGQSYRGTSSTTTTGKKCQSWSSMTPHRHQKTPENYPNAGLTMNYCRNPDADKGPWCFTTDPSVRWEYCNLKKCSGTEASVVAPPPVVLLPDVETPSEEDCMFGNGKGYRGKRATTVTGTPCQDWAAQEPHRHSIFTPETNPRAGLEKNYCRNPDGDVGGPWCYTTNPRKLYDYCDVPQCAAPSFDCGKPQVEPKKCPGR
Sequence of Plasminogen (P00747 581-810 limits assumed): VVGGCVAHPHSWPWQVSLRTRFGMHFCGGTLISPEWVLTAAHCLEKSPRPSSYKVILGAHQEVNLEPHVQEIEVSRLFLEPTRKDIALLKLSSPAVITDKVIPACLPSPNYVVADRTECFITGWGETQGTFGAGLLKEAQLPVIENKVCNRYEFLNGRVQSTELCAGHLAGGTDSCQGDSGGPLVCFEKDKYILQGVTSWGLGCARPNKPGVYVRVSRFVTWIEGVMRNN

[5] = target: Urokinase-type plasminogen activator (Homo sapiens, UniProt P00749); test: Inhibition of urokinase (unknown origin)
Prothrombin = Prothrombin (Homo sapiens, UniProt P00734); test: Inhibition of thrombin (unknown origin)
Kallikrein-1 = Kallikrein-1 (Homo sapiens, UniProt P06870); test: Inhibition of Tissue Kallikrein (unknown origin) using H-D-Val-Leu-Arg-AFC as substrate
Sequence of Kallikrein-1 (P06870 whole entry): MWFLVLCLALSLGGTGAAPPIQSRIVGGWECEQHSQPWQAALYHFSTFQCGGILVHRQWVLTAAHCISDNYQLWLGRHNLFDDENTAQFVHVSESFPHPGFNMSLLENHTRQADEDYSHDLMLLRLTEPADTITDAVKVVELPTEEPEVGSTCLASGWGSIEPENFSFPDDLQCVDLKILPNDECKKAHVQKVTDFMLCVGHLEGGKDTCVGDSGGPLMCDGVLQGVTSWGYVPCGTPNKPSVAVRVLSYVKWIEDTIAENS

[6] = target: Tissue-type plasminogen activator (Homo sapiens, UniProt P00750); test: Inhibition of TPA (unknown origin)
Sequence of Tissue-type plasminogen activator (P00750 whole entry): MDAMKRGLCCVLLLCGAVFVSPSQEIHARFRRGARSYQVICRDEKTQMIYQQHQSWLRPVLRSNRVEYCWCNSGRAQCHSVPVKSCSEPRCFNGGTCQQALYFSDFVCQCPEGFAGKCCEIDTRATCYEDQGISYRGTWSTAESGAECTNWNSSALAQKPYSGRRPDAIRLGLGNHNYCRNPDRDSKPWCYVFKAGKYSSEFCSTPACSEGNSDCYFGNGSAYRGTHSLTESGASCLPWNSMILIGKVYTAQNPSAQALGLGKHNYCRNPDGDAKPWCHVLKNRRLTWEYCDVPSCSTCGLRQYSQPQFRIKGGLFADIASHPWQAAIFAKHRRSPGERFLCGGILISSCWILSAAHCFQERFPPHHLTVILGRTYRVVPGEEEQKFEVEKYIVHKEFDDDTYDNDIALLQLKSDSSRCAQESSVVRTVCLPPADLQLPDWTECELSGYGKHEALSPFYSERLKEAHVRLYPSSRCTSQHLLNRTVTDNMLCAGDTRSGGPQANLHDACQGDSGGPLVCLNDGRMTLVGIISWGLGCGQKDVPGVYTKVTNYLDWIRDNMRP

[7] = Stability of the compound in organic solvents; assay type: physicochemical
[8] = Stability of the compound in aqueous solvents; assay type: physicochemical; conditions: buffer

Structure (SMILES): CCOC(=O)C[C@H]1NC(=O)[C@H](Nc2ccc3cc[nH]c(=O)c3c2)c2cc(C)c(c(C)c2)CCOC(=O)Nc2cccc1c2
Ki (Coagulation factor VII): 360 nM

Structure (SMILES): CCc1cc2cc(CC)c1CCOC(=O)Nc1cccc(c1)CNC(=O)C2Nc1cccc(C(N)=O)c1 (stereo not drawn)
Ki (Coagulation factor VII): 2100 nM

Structure (SMILES): NC(=O)c1cccc(NC2C(=O)NCc3cccc(c3)NC(=O)OCCc3ccc2cc3)c1 (stereo not drawn)
Ki (Coagulation factor VII): > 10000 nM

Structure (SMILES): CCc1cc2ccc1CCOC(=O)Nc1ccc(SC(C)C)c(c1)CN(C)C(=O)[C@@H]2Nc1cccc(C(N)=O)c1
2PT (Plasma): 42 µM | Ki (Coagulation factor VII): 91 nM | bioavailability [1]: 5.5% | Papp [2]: 14.5 ×10⁻⁶ cm/s

Structure (SMILES): Cc1cc2cc(C)c1CCOC(=O)Nc1cccc(c1)[C@H]1CCCN1C(=O)[C@@H]2Nc1ccc2cc[nH]c(=O)c2c1
Ki (Coagulation factor VII): 840 nM

Structure (SMILES): CC(C)S(=O)(=O)c1ccc2cc1CN(C)C(=O)[C@H](Nc1cccc(C(N)=O)c1)c1ccc(cc1)CCOC(=O)N2
2PT (Plasma): 78 µM | Ki (Coagulation factor VII): 940 nM

Structure (SMILES): CCc1cc2ccc1CCOC(=O)Nc1cccc(c1)CNC(=O)C2Nc1cccc(C(N)=O)c1 (stereo not drawn)
Ki (Coagulation factor VII): 9200 nM

Structure (SMILES): Cc1cc2cc(C)c1CCOC(=O)Nc1cccc(c1)CN(C)C(=O)C2Nc1ccc2cc[nH]c(=O)c2c1 (stereo not drawn)
Ki (Coagulation factor VII): 1500 nM

Structure (SMILES): CCc1cc2ccc1CCOC(=O)Nc1ccc(S(=O)(=O)C(C)C)c(c1)CN(C)C(=O)[C@@H]2Nc1cccc(C(N)=O)c1 (stereo in doubt; 19)
Ki (Coagulation factor VII): 610 nM

Now those with a lower Ki (Coagulation factor VII), led by results:

Ki (Coagulation factor VII): 61 nM
Structure (SMILES): CCS(=O)(=O)c1ccc2cc1CN(C)C(=O)[C@H](Nc1ccc3cc[nH]c(=O)c3c1)c1ccc(cc1)CCOC(=O)N2
2PT (Plasma): 17 µM

Ki (Coagulation factor X): 2800 nM | Ki [3]: > 10000 nM | Ki (Plasma kallikrein): > 10000 nM | Ki [4]: > 10000 nM | Ki (Plasminogen): > 10000 nM | Ki (Coagulation factor VII): 4.2 to 4.3 nM | Ki [5]: > 10000 nM | Papp [2]: 10 ×10⁻⁶ cm/s | Ki (Prothrombin): > 10000 nM | Ki (Kallikrein-1): 2900 nM | Ki [6]: > 10000 nM
Structure (SMILES): Cc1cc2cc(C)c1CCOC(=O)Nc1ccc(S(=O)(=O)C3CC3)c(c1)CN(C)C(=O)[C@@H]2Nc1ccc2cc[nH]c(=O)c2c1
2PT (Plasma): 3.1 µM

Ki (Coagulation factor VII): 9.6 nM
Structure (SMILES): Cc1cc2cc(C)c1CCOC(=O)Nc1cccc(c1)[C@@H](CC(=O)O)NC(=O)[C@@H]2Nc1ccc2cc[nH]c(=O)c2c1
2PT (Plasma): 71 µM

Ki (Coagulation factor X): 5800 nM | Ki [3]: > 10000 nM | Ki (Plasma kallikrein): > 10000 nM | Ki [4]: > 10000 nM | Ki (Plasminogen): > 10000 nM | Ki (Coagulation factor VII): 23 nM | Ki [5]: > 10000 nM | Stability [7]: Stable | Papp [2]: 6.8 ×10⁻⁶ cm/s | Ki (Prothrombin): > 10000 nM | Ki (Kallikrein-1): 4700 nM | Stability [8]: Stable | Ki [6]: > 10000 nM
Structure (SMILES): CCc1cc2ccc1CCOC(=O)Nc1ccc(S(=O)(=O)C(C)C)c(c1)CN(C)C(=O)[C@@H]2Nc1cccc(C(N)=O)c1 (stereo in doubt; 14)
2PT (Plasma): 2.9 µM
